Experimental data: PubChem BioAssay AID2060501 (Molecular Pharmacology Branch, DTP, NCI, 2025)

Test system: 282377-053-R-J1-PDC complex spheroids, viability
Experiment: Anticancer human tumor 282377-053-R-J1-PDC patient-derived colon adenocarcinoma cell line growth inhibition [GQUAD]
Conditions: for IC50: curve of first compound; for viability, T/C: stronger effect = lower value
Summary of the method: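 Tumor cells were grown as complex spheroids with HUVEC endothelial cells and mesenchymal stem cells as stroma. G-quadruplex stabilizers were combined with targeted agents over half-log dilutions from near the clinical Cmax, or from 10 microM.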

[1] = second compound 0.0316 µM, first compound 0.0316 µM
[2] = second compound 0.0316 µM, first compound 0.1 µM
[3] = second compound 0.0316 µM, first compound 0.316 µM
[4] = second compound 0.0316 µM, first compound 1 µM
[5] = second compound 0.0316 µM, first compound 3.16 µM
[6] = second compound 0.0316 µM, first compound 10 µM
[7] = second compound 0.1 µM, first compound 0.0316 µM
[8] = second compound 0.1 µM, first compound 0.1 µM
[9] = second compound 0.1 µM, first compound 0.316 µM
[10] = second compound 0.1 µM, first compound 1 µM
[11] = second compound 0.1 µM, first compound 3.16 µM
[12] = second compound 0.1 µM, first compound 10 µM
[13] = second compound 0.316 µM, first compound 0.0316 µM
[14] = second compound 0.316 µM, first compound 0.1 µM
[15] = second compound 0.316 µM, first compound 0.316 µM
[16] = second compound 0.316 µM, first compound 1 µM
[17] = second compound 0.316 µM, first compound 3.16 µM
[18] = second compound 0.316 µM, first compound 10 µM
[19] = second compound 1 µM, first compound 0.0316 µM
[20] = second compound 1 µM, first compound 0.1 µM
[21] = second compound 1 µM, first compound 0.316 µM
[22] = second compound 1 µM, first compound 1 µM
[23] = second compound 1 µM, first compound 3.16 µM
[24] = second compound 1 µM, first compound 10 µM
[25] = second compound 3.16 µM, first compound 0.0316 µM
[26] = second compound 3.16 µM, first compound 0.1 µM
[27] = second compound 3.16 µM, first compound 0.316 µM
[28] = second compound 3.16 µM, first compound 1 µM
[29] = second compound 3.16 µM, first compound 3.16 µM
[30] = second compound 3.16 µM, first compound 10 µM
[31] = second compound 10 µM, first compound 0.0316 µM
[32] = second compound 10 µM, first compound 0.1 µM
[33] = second compound 10 µM, first compound 0.316 µM
[34] = second compound 10 µM, first compound 1 µM
[35] = second compound 10 µM, first compound 3.16 µM
[36] = second compound 10 µM, first compound 10 µM
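Note: spheroids exposed to compounds for 7 days before readout.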
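Throughout, for viability, T/C: percent of vehicle DMSO control viability with 100% = untreated-like growth.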

For `CC1COCCN1c1cc(C2(O)CC3CCC(C2)O3)c2cnn(-c3ccn[nH]3)c2n1` (stereo not drawn) + Cc1[nH]c2ccc(F)cc2c1-c1nc2c3cccnc3c3ncccc3c2[nH]1, the IC50 (second compound 0.0316 µM) was 0.626 µM, the IC50 (second compound 0.1 µM) was 0.509 µM and the IC50 (second compound 0.316 µM) was 0.293 µM. It also gave an IC50 (second compound 1 µM) of 0.248 µM, an IC50 (second compound 3.16 µM) of 0.035 µM and an IC50 (second compound 10 µM) of under 0.0316 µM. For the same compound, the viability, T/C [1] was 81.3%, the viability, T/C [2] was 73.1% and the viability, T/C [3] was 71.7%. The viability, T/C [4] was 35%, the viability, T/C [5] was 25.7% and the viability, T/C [6] was 17.6%. The viability, T/C [7] was 88.2%, the viability, T/C [8] was 85.7% and the viability, T/C [9] was 59.6%. The viability, T/C [10] was 34.1%, the viability, T/C [11] was 25.6% and the viability, T/C [12] was 16.6%. The viability, T/C [13] was 71.5%, the viability, T/C [14] was 88.2% and the viability, T/C [15] was 47.8%. The viability, T/C [16] was 35.2%, the viability, T/C [17] was 24.7% and the viability, T/C [18] was 16.2%. The viability, T/C [19] was 71.7%, the viability, T/C [20] was 65.5% and the viability, T/C [21] was 45.4%. The viability, T/C [22] was 25.4%, the viability, T/C [23] was 16.4% and the viability, T/C [24] was 9.51%. For the same compound, the viability, T/C [25] was 52%, the viability, T/C [26] was 28.9% and the viability, T/C [27] was 11.3%. For the same compound, the viability, T/C [28] was 5.76%, the viability, T/C [29] was 3.99% and the viability, T/C [30] was 3.21%. For the same compound, the viability, T/C [31] was 31.2%, the viability, T/C [32] was 16.5% and the viability, T/C [33] was 8.68%. The viability, T/C [34] was 2.7%, the viability, T/C [35] was 2.23% and the viability, T/C [36] was 2.03%.

`CC1COCCN1c1cc(C2(S(C)(=N)=O)CC2)nc(-c2ccnc3[nH]ccc23)n1` (stereo not drawn) + Cc1[nH]c2ccc(F)cc2c1-c1nc2c3cccnc3c3ncccc3c2[nH]1 showed an IC50 (second compound 0.0316 µM) of over 10 µM, an IC50 (second compound 0.1 µM) of 8.74 µM and an IC50 (second compound 0.316 µM) of over 10 µM. For the same compound, the IC50 (second compound 1 µM) was 4.98 µM, the IC50 (second compound 3.16 µM) was 0.822 µM and the IC50 (second compound 10 µM) was under 0.0316 µM. It also gave a viability, T/C [1] of 85.5%, a viability, T/C [2] of 83.7% and a viability, T/C [3] of 101%. For the same compound, the viability, T/C [4] was 81.8%, the viability, T/C [5] was 78.5% and the viability, T/C [6] was 55.6%. For the same compound, the viability, T/C [7] was 90%, the viability, T/C [8] was 91.8% and the viability, T/C [9] was 82%. It also gave a viability, T/C [10] of 94.8%, a viability, T/C [11] of 61.8% and a viability, T/C [12] of 48.5%. It also gave a viability, T/C [13] of 94.5%, a viability, T/C [14] of 97.3% and a viability, T/C [15] of 65.4%. It also gave a viability, T/C [16] of 69.5%, a viability, T/C [17] of 84.5% and a viability, T/C [18] of 49.6%. For the same compound, the viability, T/C [19] was 100%, the viability, T/C [20] was 81.4% and the viability, T/C [21] was 87.3%. For the same compound, the viability, T/C [22] was 86.2%, the viability, T/C [23] was 57.7% and the viability, T/C [24] was 38.1%. It also gave a viability, T/C [25] of 65.2%, a viability, T/C [26] of 71% and a viability, T/C [27] of 56.2%. For the same compound, the viability, T/C [28] was 47.8%, the viability, T/C [29] was 31.9% and the viability, T/C [30] was 10.4%. The viability, T/C [31] was 41.6%, the viability, T/C [32] was 41% and the viability, T/C [33] was 49.8%. For the same compound, the viability, T/C [34] was 29.5%, the viability, T/C [35] was 18.1% and the viability, T/C [36] was 6.17%.

`Cc1cccc(N(C)C(=O)C2C(O)CCN2c2nc(C)cc(C(F)(F)F)c2C#N)c1` (stereo not drawn) + Cc1[nH]c2ccc(F)cc2c1-c1nc2c3cccnc3c3ncccc3c2[nH]1 was tested, and the IC50 (second compound 0.0316 µM) was over 10 µM, the IC50 (second compound 0.1 µM) was over 10 µM and the IC50 (second compound 0.316 µM) was over 10 µM. The IC50 (second compound 1 µM) was over 10 µM, the IC50 (second compound 3.16 µM) was over 10 µM and the IC50 (second compound 10 µM) was 0.567 µM. The viability, T/C [1] was 89.3%, the viability, T/C [2] was 94.1% and the viability, T/C [3] was 113%. It also gave a viability, T/C [4] of 95.9%, a viability, T/C [5] of 100% and a viability, T/C [6] of 76.2%. For the same compound, the viability, T/C [7] was 95.7%, the viability, T/C [8] was 91.3% and the viability, T/C [9] was 83.5%. The viability, T/C [10] was 109%, the viability, T/C [11] was 82.8% and the viability, T/C [12] was 94.6%. The viability, T/C [13] was 77.2%, the viability, T/C [14] was 100% and the viability, T/C [15] was 92.1%. It also gave a viability, T/C [16] of 92.8%, a viability, T/C [17] of 93% and a viability, T/C [18] of 114%. For the same compound, the viability, T/C [19] was 86%, the viability, T/C [20] was 88.3% and the viability, T/C [21] was 94.6%. The viability, T/C [22] was 109%, the viability, T/C [23] was 86.2% and the viability, T/C [24] was 89.6%. The viability, T/C [25] was 78%, the viability, T/C [26] was 73% and the viability, T/C [27] was 66.8%. For the same compound, the viability, T/C [28] was 65.7%, the viability, T/C [29] was 75.5% and the viability, T/C [30] was 79.3%. The viability, T/C [31] was 47%, the viability, T/C [32] was 56.4% and the viability, T/C [33] was 66.4%. The viability, T/C [34] was 43.6%, the viability, T/C [35] was 36.8% and the viability, T/C [36] was 35%.

With `Cn1ncnc1[C@H]1c2n[nH]c(=O)c3cc(F)cc(c23)N[C@@H]1c1ccc(F)cc1` + Cc1[nH]c2ccc(F)cc2c1-c1nc2c3cccnc3c3ncccc3c2[nH]1 the IC50 (second compound 0.0316 µM) was over 0.316 µM, the IC50 (second compound 0.1 µM) was over 0.316 µM and the IC50 (second compound 0.316 µM) was over 0.316 µM. For the same compound, the IC50 (second compound 1 µM) was over 0.316 µM, the IC50 (second compound 3.16 µM) was over 0.316 µM and the IC50 (second compound 10 µM) was over 0.316 µM. It also gave a viability, T/C (second compound 0.0316 µM, first compound 0.000999 µM) of 95.8%, a viability, T/C (second compound 0.0316 µM, first compound 0.00316 µM) of 80.1% and a viability, T/C (second compound 0.0316 µM, first compound 0.00999 µM) of 96.7%. It also gave a viability, T/C [1] of 88.1%, a viability, T/C (second compound 0.0316 µM, first compound 0.0999 µM) of 109% and a viability, T/C [3] of 90.2%. It also gave a viability, T/C (second compound 0.1 µM, first compound 0.000999 µM) of 91.8%, a viability, T/C (second compound 0.1 µM, first compound 0.00316 µM) of 87.3% and a viability, T/C (second compound 0.1 µM, first compound 0.00999 µM) of 101%. The viability, T/C [7] was 85.3%, the viability, T/C (second compound 0.1 µM, first compound 0.0999 µM) was 93.2% and the viability, T/C [9] was 97.9%. It also gave a viability, T/C (second compound 0.316 µM, first compound 0.000999 µM) of 95.1%, a viability, T/C (second compound 0.316 µM, first compound 0.00316 µM) of 104% and a viability, T/C (second compound 0.316 µM, first compound 0.00999 µM) of 81.1%. The viability, T/C [13] was 110%, the viability, T/C (second compound 0.316 µM, first compound 0.0999 µM) was 90.5% and the viability, T/C [15] was 106%. For the same compound, the viability, T/C (second compound 1 µM, first compound 0.000999 µM) was 79.3%, the viability, T/C (second compound 1 µM, first compound 0.00316 µM) was 87.7% and the viability, T/C (second compound 1 µM, first compound 0.00999 µM) was 80.7%. For the same compound, the viability, T/C [19] was 89.2%, the viability, T/C (second compound 1 µM, first compound 0.0999 µM) was 111% and the viability, T/C [21] was 86%. The viability, T/C (second compound 3.16 µM, first compound 0.000999 µM) was 67.7%, the viability, T/C (second compound 3.16 µM, first compound 0.00316 µM) was 65.8% and the viability, T/C (second compound 3.16 µM, first compound 0.00999 µM) was 71.8%. It also gave a viability, T/C [25] of 66.4%, a viability, T/C (second compound 3.16 µM, first compound 0.0999 µM) of 86.8% and a viability, T/C [27] of 70.3%. The viability, T/C (second compound 10 µM, first compound 0.000999 µM) was 48.9%, the viability, T/C (second compound 10 µM, first compound 0.00316 µM) was 51.7% and the viability, T/C (second compound 10 µM, first compound 0.00999 µM) was 57.2%. The viability, T/C [31] was 45%, the viability, T/C (second compound 10 µM, first compound 0.0999 µM) was 41.1% and the viability, T/C [33] was 57.4%.
